As a reminder, the AUC(0-inf) is total exposure, with the tail of the curve extrapolated. A lower AUC(0-inf) goes with less exposure. What is called Cmax is the maximum level reached in the sampled fluid or tissue. The term Tmax denotes the time from dosing to the highest level. A word on the half-life: it is the time in which the quantity being followed falls by half. A lower half-life goes with rapid decline.

Series [1] is described as follows: Hygroscopicity test. The format is physicochemical. The settings on record: p-toluenesulfonate; for Hygroscopicity (in words): conclusion from Table 4; for Hygroscopic capacity %: 25±1° C. The method, then:
A glass weighing bottle equipped with a stopper was tarred and the weight was recorded as m1. Compound (I) in crystalline form C or amorphous form (about 1.0 g) was placed in the tared weighing bottle and capped with the stopper. The total weight was then recorded as m2. […] The weighing bottle capped with its stopper was weighed on day 5 and day 10 and the weight was recorded as m3.

A short description of series [2]: Pharmacokinetics test in beagle dogs. The format is in vivo. The method, then: The pharmacokinetic properties of amorphous Compound (I) or the crystalline form C of Compound (I) disclosed herein are assessed in beagle dogs. The LC/MS/MS system used in the analysis consists of an Agilent 1200 Series vacuum degasser, binary pump, well-plate autosampler, thermostatted column compartment, the Agilent G6430 Triple Quadrupole Mass Spectrometer with an electrosprayionization (ESI) source. Quantitative analysis was carried out using MRM mode. The parameters for MRM transitions are in the Table A.
An Agilent XDB-C18, 2.1×30 mm, 3.5 μM column was used for the analysis. 5 μL of the samples were injected. Analysis condition: The mobile phase was 0.1% formic acid in water (A) and 0.1% formic acid in methanol (B). The flow rate was 0.4 mL/min. And the gradient of Mobile phase was in the Table B.
Alternatively, an Agilent 6330 series LC/MS/MS spectrometer equipped with G1312A binary pumps, a G1367A autosampler and a G1314C UV detector were used in the analysis. An ESI source was used on the LC/MS/MS spectrometer. The analysis was done in positive ion mode as appropriate and the MRM transition for each analyte was optimized using standard solution. A Capcell MP-C18 100×4.6 mm I.D., […] column (Phenomenex, Torrance, Calif., USA) was used during the analysis. The mobile phase was 5 mM ammonia acetate, 0.1% MeOH in water (A): 5 mM ammonia acetate, 0.1% MeOH in acetonitrile (B) (70/30, v/v). The flow rate was 0.6 mL/min. Column was maintained at ambient temperature. 20 μL of the samples were injected.
The capsule of the crystalline form C or the amorphous of Compound (I) mixed with adjuvants respectively was administered by gavage to beagle dogs in a dose of 7 or 10 mg/kg. The blood samples (0.3 mL) were drawn at 0.25, 0.5, 1.0, 2.0, 3.0, 4.0, 6.0, 8.0, 12 and 24 hour time points or 0.083, 0.25, 0.5, 1.0, 2.0, 4.0, 6.0, 8.0 and 24 hour time points and centrifuged at 3,000 or 4000 rpm for 2 to 10 min. The plasma solutions were collected, and analyzed by LC/MS/MS as described above. The pharmacokinetic parameters were calculated according to non-compartment model using WinNonlin procedure.

Series [3] is described as follows: Stability test (impurity contents by HPLC after storage of the solid). The format is physicochemical. To be noted: p-toluenesulfonate; for Increase of the impurity contents: illuminating the samples for 10 days.
Assay in series [4]: as above
The format is physicochemical. The settings on record: p-toluenesulfonate. The procedure: A sample of crystalline form C of compound (I) (100˜200 mg) was placed on a watching glass in the form of a thin layer (thickness ≦5 mm). The samples were exposed to the following conditions: high temperature (60±2° C.) for 10 days; high humidity (25±2° C., 90%±5% relative humidity) for 10 days; illumination condition (visible light 4500 lx±500 lx with ultraviolet light not lower than 0.7 W·h/m^2, 25±2° C., 60%±5% relative humidity) for 10 days; and room temperature (30±2° C., 65%±5% relative humidity) for 10 days, respectively. The impurity contents in the samples were determined at different time points (0, 5 and 10 days) by high performance liquid chromatography (HPLC), and the absorption peaks were normalized relative to the highest peak (corresponds to compound I) which is set to 100%.

Where [5] appears, read: dog, plasma, po, capsule by gavage, dose 9.9 mg/kg (Form C), 9.7 mg/kg (Amorphous).
Setting [6] is: high humidity (25±2° C., 90%±5% relative humidity), 0 day.
Setting [7] is: high humidity (25±2° C., 90%±5% relative humidity), 5 days.
The mark [8] stands for this setting: high humidity (25±2° C., 90%±5% relative humidity), 10 days.
Setting [9] is: high temperature (60±2° C.), 10 days.
The mark [10] stands for this setting: illuminating condition (visible light 4500 lx±500 lx with UV, 25±2° C., 60%±5% RH), 10 days.
Setting [11] is: room temperature (30±2° C., 65%±5% relative humidity), 0 day.
The mark [12] stands for this setting: high temperature (60±2° C.), 0 day.
[13] abbreviates: high temperature (60±2° C.), 5 days.
The mark [14] stands for this setting: illuminating condition (visible light 4500 lx±500 lx with UV, 25±2° C., 60%±5% RH), 0 day.
Where [15] appears, read: illuminating condition (visible light 4500 lx±500 lx with UV, 25±2° C., 60%±5% RH), 5 days.
[16] abbreviates: room temperature (30±2° C., 65%±5% relative humidity), 5 days.
[17] abbreviates: room temperature (30±2° C., 65%±5% relative humidity), 10 days.
Where [18] appears, read: listed as amorphous Compound (I).

For `Cc1c(C(=O)Nc2ccc(Oc3ccnc4cc(OCC(C)(C)O)ccc34)c(F)c2)c(=O)n(-c2ccccc2)n1C.Cc1ccc(S(=O)(=O)O)cc1` [Form C, N-(3-fluoro-4-((7-(2-hydroxy-2-methylpropoxy)quinolin-4-yl)oxy)phenyl)-1,5-dimethyl-3-oxo-2-phenyl-2,3-dihydro-1H-pyrazole-4-carboxamide p-toluenesulfonate], the “Hygroscopicity (in words)” value in series [1] (listed as crystalline form C of compound (I)) is recorded as “not hygroscopic”. The Hygroscopic capacity % in series [1] (standing time 5 d) came out at 0.22%; in series [1] (standing time 10 d), 0.43%. In addition, in series [2] (Cmax, AUC0-24h and AUC0-∞ compared with amorphous Compound (I)), the “Exposure and bioavailability in vivo (in words)” value was “good exposure and bioavailability”. The AUC(0-inf) in series [2] (setting [5]) turned out to be 90100 ng·h/mL. Further, the Cmax in series [2] (setting [5]) is 4760 ng/mL. Further, the Tmax in series [2] (setting [5]) turned out to be 4 h. This compound had a half-life in series [2] (setting [5]) of 14.6 h. Moreover, in series [2] (dog, plasma, po, capsule by gavage, dose 9.9 mg/kg (Form C), 9.7 mg/kg (Amorphous), read-out: AUC0-24 h), the AUC(0-t) was 59700 ng·h/mL. Besides, the The impurity contents in series [3] (setting [6]) was 2.00%; in series [3] (setting [7]), 1.94%; in series [3] (setting [8]), 1.92%; in series [3] (setting [9]), 1.89%; in series [3] (setting [10]) it was 2.14%; in series [3] (setting [11]) it was 2.00%. Besides, the The impurity contents in series [4] (setting [12]) came to 2.00%; in series [4] (setting [13]), 1.97%; in series [4] (setting [14]) it was 2.00%; in series [4] (setting [15]) it was 1.97%; in series [4] (setting [16]), 1.90%; in series [4] (setting [17]), 1.91%. Also, the “Increase of the impurity contents” value in series [3] (listed as crystalline form C of Compound (I)) was found to be 0.14%.

With `Cc1c(C(=O)Nc2ccc(Oc3ccnc4cc(OCC(C)(C)O)ccc34)c(F)c2)c(=O)n(-c2ccccc2)n1C.Cc1ccc(S(=O)(=O)O)cc1` [Amorphous, N-(3-fluoro-4-((7-(2-hydroxy-2-methylpropoxy)quinolin-4-yl)oxy)phenyl)-1,5-dimethyl-3-oxo-2-phenyl-2,3-dihydro-1H-pyrazole-4-carboxamide p-toluenesulfonate], the “Hygroscopicity (in words)” value in series [1] (setting [18]) is on record as “hygroscopic”. Moreover, the Hygroscopic capacity % in series [1] (standing time 5 d) amounted to 7.74%; in series [1] (standing time 10 d) it was 8.48%. For the same compound, the The impurity contents in series [3] (setting [6]) came out at 0.14%; in series [3] (setting [7]), 0.11%; in series [3] (setting [8]) it was 0.07%; in series [3] (setting [9]), 0.10%; in series [3] (setting [10]) it was 0.56%; in series [3] (setting [11]), 0.14%. The The impurity contents is listed as 0.14% in series [4] (setting [12]); 0.13% in series [4] (setting [13]); 0.14% in series [4] (setting [14]); 0.36% in series [4] (setting [15]); 0.07% in series [4] (setting [16]); 0.07% in series [4] (setting [17]). The “Increase of the impurity contents” value in series [3] (setting [18]) amounted to 0.42%.

(Values after US9695150B2, “Crystalline form of a substituted quinoline compound and pharmaceutical compositions thereof” (Sunshine Lake Pharma Co., Ltd., priority 2015, dated 2017).)
